Holding throughout (type): cell-based
Test [1] addresses T1, human prostanoid FP receptor (Homo sapiens, UniProt P43088).
T1 construct: expressed in transfected cells
Nature of the test: FLIPR Ca2+ signaling antagonist assay, FP receptor stable cell line. The note with it: HEK-293 EBNA stable cell line; standard agonist 17-phenyl-PGF2α; NA = inactive (no antagonism or Kb 10,000 nM); PAg, Ag not defined. In a few lines:
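Peak Fluo-4 fluorescence (ex 470–495, em 515–575 nm) was read for 3.5 min on FLIPR after agonist injection and expressed relative to 10^−6 M standard agonist. Cells were HEK-293 EBNA transfectants. Test compound was added 4.5 min beforehand at 0.1–30 μM, or 0.067–1 μM for TP.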

The target in test [2] is T2, human prostanoid DP1 receptor (Homo sapiens, UniProt Q13258).
T2 construct: expressed in transfected cells
T2 sequence (Q13258 1-359): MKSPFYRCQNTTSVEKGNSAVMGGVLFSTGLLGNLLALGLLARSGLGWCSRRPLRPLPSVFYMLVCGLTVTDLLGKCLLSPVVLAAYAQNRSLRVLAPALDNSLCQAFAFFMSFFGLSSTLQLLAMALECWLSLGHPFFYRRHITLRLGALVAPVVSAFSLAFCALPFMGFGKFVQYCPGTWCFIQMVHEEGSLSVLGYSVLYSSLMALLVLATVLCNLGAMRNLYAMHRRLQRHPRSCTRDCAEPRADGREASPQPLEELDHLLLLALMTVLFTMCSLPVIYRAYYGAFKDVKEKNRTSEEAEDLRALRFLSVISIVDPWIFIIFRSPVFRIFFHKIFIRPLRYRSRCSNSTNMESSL
Nature of the test: FLIPR Ca2+ signaling antagonist assay, DP1 receptor stable cell line. The following applies: HEK-293 EBNA stable cell line; standard agonist BW 245C; NA = inactive (no antagonism or Kb 10,000 nM); PAg, Ag not defined. In a few lines:
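Functional antagonism measured by Ca2+ flux at 37 °C. Agonist ranges were 10^−11 to 10^−5 M, or 10^−12 to 10^−6 M for TP with U-46619; PGE2 for EP1/EP3, BW 245C for DP1. Compound spanned 0.1–30 μM except TP, 0.067–1 μM.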

In test [3] the target is T3, human prostanoid EP3 receptor (Homo sapiens, UniProt P43115).
T3 construct: expressed in transfected cells
T3 sequence (P43115 1-390): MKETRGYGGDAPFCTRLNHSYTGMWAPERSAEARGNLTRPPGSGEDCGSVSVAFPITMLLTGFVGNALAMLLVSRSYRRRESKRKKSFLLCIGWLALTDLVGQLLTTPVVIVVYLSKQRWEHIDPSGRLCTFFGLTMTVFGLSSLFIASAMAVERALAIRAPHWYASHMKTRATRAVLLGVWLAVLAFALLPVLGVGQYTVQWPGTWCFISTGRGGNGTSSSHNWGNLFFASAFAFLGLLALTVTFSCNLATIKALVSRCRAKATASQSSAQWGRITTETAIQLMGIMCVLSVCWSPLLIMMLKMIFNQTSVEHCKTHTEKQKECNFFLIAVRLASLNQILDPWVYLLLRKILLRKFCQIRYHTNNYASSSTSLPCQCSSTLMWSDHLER
Nature of the test: FLIPR Ca2+ signaling antagonist assay, EP3 receptor stable cell line. The following applies: HEK-293 EBNA stable cell line; standard agonist PGE2; NA = inactive (no antagonism or Kb 10,000 nM); PAg, Ag not defined. Here is the method: The above compounds were tested for PG antagonist activity as follows using human recombinant prostanoid receptor (DP1, EP1-4, FP, IP and TP) stable cell lines:
In order to measure the response of Gs and Gi coupled prostanoid receptors as a Ca^2+ signal, chimeric G protein cDNAs were used. Stable cell lines over-expressing human prostanoid DP1, EP1-4, FP, IP, and TP receptors were established as follows:
Briefly, human prostanoid DP1, EP2, and EP4 receptor cDNAs were co-transfected with chimeric Gqs cDNA containing a haemagglutanin (HA) epitope; human prostanoid EP3 receptors were co-transfected with chimeric Gqi-HA; human EP1, FP, IP, and TP receptor cDNAs were expressed with no exogenous G-proteins. Gqs and Gqi chimeric cDNAs (Molecular Devices, Sunnyvale, Calif., U.S.A.), as well as cDNAs of prostanoid receptors, were cloned into a pCEP4 vector with a hygromycin B selection marker. Transfection into HEK-293 EBNA (Epstein-Barr virus nuclear antigen) cells was achieved by the FuGENE 6 transfection Reagent (Roche Applied Science, Indianapolis, Ind., USA). Stable transfectants were selected according to hygromycin resistance. Because Gqs and Gqi contained an HA epitope, G-protein expression was detected by Western blotting analysis using anti-mouse HA monoclonal antibody and horseradish peroxidase (HRP)-conjugated secondary antibody, while functional expression of prostanoid receptors was detected by FLIPR screening (Matias et al., 2004). These stable cell lines were validated using previously published antagonists at 10 μM against serial dilutions of standard agonists by FLIPR functional assays for Ca^2+ Signaling (as described below).
Ca^2+ signaling studies were performed using a FLIPR TETRA system (Molecular Devices, Sunnyvale, Calif., USA) in the 384-format. This is a high-throughput instrument for cell-based assays to monitor Ca^2+ signaling associated with GPCRs and ion channels. Cells were seeded at a density of 5×10^4 cells/well in BioCoat poly-D-lysine coated, black wall, clear bottom 384-well plates (BD Biosciences, Franklin lakes, NJ, USA) and allowed to attach overnight in an incubator at 37° C. The cells were then washed twice with HBSS-HEPES buffer (Hanks' balanced salt solution without bicarbonate and phenol red, 20 mM HEPES, pH 7.4) using an ELx405 Select CW Microplate Washer (BioTek, Winooski, Vt., USA). After 60 min of dye-loading in the dark using the Ca^2+-sensitive dye Fluo-4AM (Invitrogen, Carlsbad, Calif., USA), at a final concentration of 2×10^−6M, the plates were washed 4 times with HBSS-HEPES buffer to remove excess dye and leaving 50 μl of buffer in each well. The plates were then placed in the FLIPR TETRA instrument and allowed to equilibrate at 37° C. AGN-211377 was added in a 25 μl volume to each well to give final concentrations of 0.1 μM, 0.3 μM, 1 μM, 3 μM, 10 μM, and 30 μM; or 0.067 μM, 0.1 μM, 0.2 μM, 0.3 μM, 0.67 μM, and 1 μM for cells over-expressing TP receptors. After 4.5 minutes, a 7-point serial dilution of the standard agonist for the corresponding receptor, in a 25 μl volume was injected at the final concentrations from 10^−11M to 10^−5M in 10-fold serial dilution increments for cells expressing human recombinant DP1, EP1, EP2, EP3, EP4, FP, and IP receptors. The dose range for the standard agonist for human recombinant TP receptors was from 10^−12 M to 10^−6 M. HBSS-HEPES buffer was used as the negative control for the standard agonists. Cells were excited with LED (light emitting diode) excitation at 470-495 nm and emission was measured through an emission filter at 515-575 nm. Assay plates were read for 3.5 minutes using the FLIPR^TETRA. The peak increase in fluorescence intensity was recorded for each well. On each plate, negative controls, dose response of positive controls, and co-treatments of antagonist-agonist for each dose were in triplicates.
Standard agonists were as follows: DP=BW 245C, EP1-EP4=PGE2, FP=17-phenyl-PGF2α, IP=Cicaprost, and TP=U-46619. […]

The text below walks through data of patent US9394284B2, “Compounds act at multiple prostaglandin receptors giving a general anti-inflammatory response” (Allergan, Inc., priority 2010, dated 2016).

T1 sequence (P43088 whole entry): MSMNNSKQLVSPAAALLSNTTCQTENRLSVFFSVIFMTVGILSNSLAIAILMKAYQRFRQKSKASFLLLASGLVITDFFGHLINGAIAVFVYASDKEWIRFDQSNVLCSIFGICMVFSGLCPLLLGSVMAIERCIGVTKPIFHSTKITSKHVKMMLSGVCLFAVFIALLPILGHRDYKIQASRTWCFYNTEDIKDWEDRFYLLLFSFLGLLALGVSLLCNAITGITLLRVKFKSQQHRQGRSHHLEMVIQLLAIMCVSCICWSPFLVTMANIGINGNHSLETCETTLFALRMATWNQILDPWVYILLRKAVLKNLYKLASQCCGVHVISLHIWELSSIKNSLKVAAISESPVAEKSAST

For orientation: Kb means the equilibrium dissociation constant of an antagonist, usually derived from a functional assay. The low end stands for higher antagonist affinity, the high end for lower antagonist affinity. `CCCCC(CC)COc1ccc(Br)cc1Cn1nc(CCC(=O)O)cc1C` (stereo not drawn) [Example 6, 3-[1-(5-Bromo-2-(2-ethyl-hexyloxy)-benzyl)-5-methyl-1H-pyrazol-3-yl]-propionic acid]: the antagonist equilibrium constant (Kb) came out at 0.4 µM in test [1], 0.18 µM in test [2] and 8.8 µM in test [3].
On the same counts, the results for `CCCC(C)COc1ccc(Br)cc1Cn1nc(CCC(=O)O)cc1C` (stereo not drawn) [Example 8, 3-[1-(5-Bromo-2-(2-methyl-pentyloxy)-benzyl)-5-methyl-1H-pyrazol-3-yl]-propionic acid] are 0.09 µM, 0.11 µM and 6.4 µM.
In the case of `Cc1cc(CCC(=O)O)nn1Cc1cc(Br)ccc1OCC1(C(F)(F)F)CCC1` [Example 13, 3-[1-(5-Bromo-2-(1-trifluoromethylcyclobutylmethoxy)-benzyl)-5-methyl-1H-pyrazol-3-yl]-propionic acid], the results for the antagonist equilibrium constant (Kb) in test [1], in test [2] and in test [3] were 0.1 µM, 0.9 µM and 8.3 µM, respectively.
Regarding `CCC(CC)COc1ccc(Br)cc1Cn1nc(CCC(=O)NS(=O)(=O)C(F)(F)F)cc1C` [Example 17, N-(3-{1-[5-Bromo-2-(2-ethyl-butoxy)-benzyl]-5-methyl-1H-pyrazol-3-yl}-propionyl)-C,C,C-trifluoro-methanesulfonamide], the Kb in test [1] came to 0.4 µM; in test [2] it was 0.2 µM; in test [3] it was 1 µM.
For `Cc1cc(CCC(=O)NS(=O)(=O)C(F)(F)F)nn1Cc1cc(Br)ccc1OCC(C)C` [Example 19, N-(3-{1-[5-Bromo-2-isobutoxybenzyl]-5-methyl-1H-pyrazol-3-yl}-propionyl)-C,C,C-trifluoro-methanesulfonamide], the Kb in test [1] was determined as 0.22 µM; in test [2], 0.2 µM; in test [3], 0.7 µM.
Turning to `Cc1cc(CCC(=O)NS(=O)(=O)CC(F)(F)F)nn1Cc1cc(Cl)ccc1OCc1ccc(Cl)cc1` [Example 25, 2,2,2-trifluoroethanesulfonic acid-(3-[1-(5-Chloro-2-(4-chlorobenzyloxy)benzyl)-5-methyl-1H-pyrazol-3-yl]-propionyl)amide], the Kb in test [1] was 0.4 µM; in test [2], 1.33 µM; in test [3], 4.5 µM.
For the compound `Cc1cc(CCC(=O)O)nn1Cc1cc(Cl)ccc1OCc1ccc(Cl)cc1Cl` [Example 26, 3-[1-(5-Chloro-2-(2,4-dichlorobenzyloxy)benzyl)-5-methyl-1H-pyrazol-3-yl]-propionic acid], the values for the Kb in test [1], in test [2] and in test [3] were 0.14 µM, 0.5 µM and 7.1 µM, respectively.
Take `Cc1cc(CCC(=O)NS(=O)(=O)C(F)(F)F)nn1Cc1cc(Cl)ccc1OCc1ccc(Cl)cc1Cl` [Example 27, N-(3-[1-(5-Chloro-2-(2,4-dichlorobenzyloxy)benzyl)-5-methyl-1H-pyrazol-3-yl]-propionyl)C,C,C-trifluoromethanesulfonamide]: the Kb in test [1] came out at 0.09 µM; in test [2], 0.2 µM; in test [3], 0.5 µM.
Regarding `CCC(CC)COc1ccc(Br)cc1Cn1nc(CCC(=O)O)cc1C(C)C` [Example 55, 3-{1-[5-Bromo-2-(2-ethyl-butoxy)-benzyl]-5-isopropyl-1H-pyrazol-3-yl}-propionic acid], the Kb is 0.11 µM in test [1], 0.54 µM in test [2] and 3.7 µM in test [3].
With `CCCc1cc(CCC(=O)O)nn1Cc1cc(Br)ccc1OCC(CC)CC` [Example 56, 3-{1-[5-Bromo-2-(2-ethyl-butoxy)-benzyl]-5-propyl-1H-pyrazol-3-yl}-propionic acid], the antagonist dissociation constant (Kb) came out at 0.9 µM in test [1], 0.8 µM in test [2] and 2.7 µM in test [3].
For the compound `CCC(CC)COc1ccc(Br)cc1Cn1nc(CCC(=O)O)cc1C(C)(C)C` [Example 57, 3-{1-[5-Bromo-2-(2-ethyl-butoxy)-benzyl]-5-tert-butyl-1H-pyrazol-3-yl}-propionic acid], the Kb in test [1] worked out at 0.5 µM; in test [2], 1.6 µM; in test [3], 6.6 µM.
For the compound `CCC(CC)COc1ccc(Br)cc1Cn1nc(CCC(=O)O)cc1C(F)(F)F` [Example 58, 3-{1-[5-Bromo-2-(2-ethyl-butoxy)-benzyl]-5-trifluororomethyl-1H-pyrazol-3-yl}-propionic acid], the “FP (FLIPR) Kb” value in test [1] is “PAg”. The same compound gave a Kb in test [2] of 0.06 µM. Besides, in test [3], the “EP3 (FLIPR) Kb” value is on record as “PAg”.
With `Cc1cc(CC(C)(C)C(=O)O)nn1Cc1cc(Br)ccc1OCC1CCCC1` [Example 71, 3-{1-[5-Bromo-2-(2-cyclopentylmethoxy)-benzyl]-5-methyl-1H-pyrazol-3-yl}-2,2-dimethyl-propionic acid], the Kb in test [1] is 0.2 µM; in test [2], 0.9 µM; in test [3], 3.2 µM.
`Cc1cc(CCC(=O)O)nn1Cc1cc(Cl)ccc1C#CC1CCCC1` [Example 73, 3-{1-[5-Chloro-2-cyclopentylethynyl-benzyl]-5-methyl-1H-pyrazol-3-yl}-propionic acid]: the Kb in test [1] was 0.05 µM; in test [2] it was 0.7 µM; in test [3] it was 2.7 µM.
For the compound `Cc1cc(CCC(=O)NS(=O)(=O)C(F)(F)F)nn1Cc1cc(Cl)ccc1CCC1CCCC1` [Example 75], the Kb was determined as 1.5 µM in test [1], 0.35 µM in test [2] and 1.6 µM in test [3].
